Like-named read-outs stand apart in the source and are kept apart here. Where no end group is shown, it is not given here. acridinium ester = acridinium ester label conjugated to the N-terminus of the peptide
What was measured:
[1] = system: Arabidopsis seedlings, primary root; experiment: Root growth inhibition assay, vertical plates; assay type: in vivo, Arabidopsis thaliana; conditions: bak1 mutants, 0.1 μM, 8 days
Protocol: (§1) (A) and (B) Arabidopsis seedlings (2 days old) were treated with 10 μM AtRALF1 or water (H20) for 2 days. The values are the mean ± SD of at least 25 seedlings. Triple asterisks indicate P < 0.01 (Student’s t test); ns, not significant. (C) Four-day-old seedlings were transferred to media containing different concentrations of AtRALF1, and the primary root length was measured after 8 days of treatment. The data represent the mean value ± SD of 30 seedlings. […] Representative Arabidopsis seedlings after 8 days of treatment with AtRALF1 are shown below. Seedlings were arranged on plates after the treatment for imaging. Scale bars, 1 cm. (D) Two-day-old seedlings were treated with 10 μM AtRALF1 or water for 2 days, and root cell length was measured after 2 days of treatment. Cells from the root endodermis in the differentiation zone were measured. The values are the mean ± SD of approximately 150 cells. Triple asterisks indicate P < 0.01 (Student’s t test); ns, not significant.
Aliquots of 1 ml of medium containing seeds were distributed into 24-well plates. The peptides (10 μM) were added after 2 days, and the root length was measured 2 days after treatment. To maximize root growth, the seeds were germinated in vertical plates. […] The root length was measured 8 days after treatment unless stated otherwise. Control plants were grown under identical conditions in a peptide-free medium. Quantitative data were obtained as previously described. […] The data from one representative experiment are shown. For cell length measurements, AtRALF1 peptide (10 μM) was added after 2 days of germination, and the cell length was measured after 2 days of treatment. The cell wall was stained with a 1 mg ml^-1 propidium iodide solution (Sigma) in the dark for 15 min and washed twice with water. Cells of the endodermis of the root differentiation zone were imaged and measured using confocal microscopy (Olympus FV1000). Approximately 30 plants from each genetic background and at least 5 cells per root were measured. The wavelengths for excitation and emission were 555 and 655 nm, respectively. Image processing was completed using the Olympus FluoView software.
Supplementary file pgen.1007053.s004.pdf: S4 Fig Analyses of root growth of Arabidopsis seedlings treated with AtRALF1 peptide for 8 days and evaluated daily. Four-day-old seedlings were transferred to media containing different concentrations of AtRALF1, and the primary root length was measured daily during the 8 days of treatment. Genotypes Wt, bak1-1, bak1-3 and bak1-4 are indicated on top of each series of graphics. The seedlings were treated with 0, 0.5, 1, 5 and 10 μM AtRALF1. The data represent the mean values ± SD of 30 seedlings. Double and triple asterisks indicate P < 0.05 and P <0.01, respectively (Student’s t test); ns, not significant. (PDF) Click here for additional data file.
Four-day-old seedlings were transferred to medium containing 10 μM AtRALF1, and the primary root length was measured after 8 days of treatment. The data represent the mean value ± SD of 20 seedlings. Triple asterisks indicate P < 0.01 (Student’s t test); ns, not significant. Representative Arabidopsis seedlings after 8 days of treatment with AtRALF1 are shown. The seedlings were arranged on plates after the treatment for imaging. Scale bars, 1 cm. (PDF) Click here for additional data file.
Four-day-old seedlings were transferred to medium containing 0.1 μM BAP, and the primary root length was measured after 8 days of treatment. The data represent the mean value ± SD of 10 seedlings.

[2] = system: Arabidopsis seedlings, primary root; experiment: Root growth inhibition assay, liquid medium, 24-well plates; assay type: in vivo, Arabidopsis thaliana; conditions: 10 μM, 2 days; bak1-1, bak1-3 and bak1-4 mutants
Protocol: as §1
Aliquots of 1 ml of medium containing seeds were distributed into 24-well plates. The peptides (10 μM) were added after 2 days, and the root length was measured 2 days after treatment. To maximize root growth, the seeds were germinated in vertical plates. […] The root length was measured 8 days after treatment unless stated otherwise. Control plants were grown under identical conditions in a peptide-free medium. Quantitative data were obtained as previously described. The experiments were repeated at least 3 times using independent biological replicates with similar results. The data from one representative experiment are shown. For cell length measurements, AtRALF1 peptide (10 μM) was added after 2 days of germination, and the cell length was measured after 2 days of treatment. The cell wall was stained with a 1 mg ml^-1 propidium iodide solution (Sigma) in the dark for 15 min and washed twice with water. Cells of the endodermis of the root differentiation zone were imaged and measured using confocal microscopy (Olympus FV1000). Approximately 30 plants from each genetic background and at least 5 cells per root were measured. The wavelengths for excitation and emission were 555 and 655 nm, respectively. Image processing was completed using the Olympus FluoView software.
Arabidopsis seedlings (2-days-old) were treated with 10 μM AtRALF1 or water (H20) for 2 days. The values are the mean ± SD of at least 25 seedlings. Triple asterisks indicate P < 0.01 (Student’s t test); ns, not significant. (PDF) Click here for additional data file.
Supplementary file pgen.1007053.s002.pdf: S2 Fig Loss-of-function bak1 mutants are sensitive to the inhibitory activity of AtRALF23/34 on root growth. Arabidopsis seedlings (2-day-old) were treated with 10 μM RALF1(9–49), RALF1(I6A), AtRALF1, AtRALF23 and AtRALF34 or water (H20) for 2 days. The values are the mean ± SD of at least 20 seedlings. […] (PDF) Click here for additional data file.

[3] = system: Arabidopsis seedlings, primary root; conditions: wild-type Arabidopsis; ref [5]; cited from earlier work
Protocol: To better understand the role of AtRALF1 and BRs in regulating cell expansion, we exposed different mutants and transgenic Arabidopsis plants with altered BR signaling pathways to the peptide hormone AtRALF1 at concentrations that inhibit root growth. Loss-of-function mutants (bri1-301, bsk3-2 and bak1-4), gain-of-function mutants (sud1, bes1-D and bzr1-D) and two overexpressor lines (BRI OX and DWF4 OX) were used in the root growth assays in the presence or absence of 10 μM AtRALF1 (Fig 1A).

cell suspensions = conditions: ref [5]; cited from earlier work
[4] = system: cytosolic Ca^2+ in Arabidopsis seedlings; experiment: Ca^2+ mobilization assay (apoaequorin luminescence); assay type: in vivo, Arabidopsis thaliana; conditions: acriAtRALF1 vs unlabeled AtRALF1, apoaequorin seedlings (S17A Fig)
Protocol: The cytoplasmic Ca^2+ assay was performed in Arabidopsis seedlings as described previously. Changes in Ca^2+ levels were measured using an Arabidopsis line homozygous for the single insertion of a transgene encoding a cytoplasmically expressed apoaequorin protein driven by the constitutive promoter 35S [53], here denoted Wt-aeq. Wt-aeq plants were crossed with bak1-3 mutants, and T3 generation plants overexpressing apoaequorin and containing a T-DNA insertion in the BAK1 gene, named bak1-3-aeq, were selected and evaluated using semi-quantitative RT-PCR with specific primers (S1 Table). Arabidopsis seedlings were grown in plates for 4 days. A single seedling was transferred into each well of a 96-well white microplate (Thermo Labsystems) containing 200 μl of medium supplemented with […] coelenterazine cp (Biotium) and incubated in the dark at 24 °C for 16 h. Each well containing a single seedling received recombinant AtRALF1 or acridinium-labeled AtRALF1 at a final concentration of 5, 10 or 100 nM as indicated. The resulting luminescence emission was monitored using a microplate reader (Biotec ELx 800) and 20 time-points for approximately 160 s. The experiments were repeated at least three times using independent biological replicates. The data shown are from one representative experiment.

[5] = system: intact Arabidopsis seedlings; experiment: Binding assay with acridinium-labeled AtRALF1, intact seedlings; design: species or system Arabidopsis thaliana; conditions: for reduction of total acriAtRALF1 binding vs wild-type: 7 nM, 4 °C
Protocol: (§2) (A) Whole seedlings (5 days old) were treated for 15 min with acriAtRALF1 (acriR1), acriR1 and an excess of unlabeled AtRALF34 (R34), RALF1(9–49) [(R-9-49)], or AtRALF1 (R1), as indicated. The values are the mean ± SD of two measurements (5 seedlings each). (B) Microsomal fractions from wild-type and bak1 mutants were incubated for 15 min with acriAtRALF1 (acriR1), with acriR1 and an excess of unlabeled RALF1(9–49) [(R-9-49)], or with AtRALF1 (R1), as indicated. The values are the mean ± SD of two measurements. The proportions of labeled: unlabeled proteins are shown in parentheses. Single and triple asterisks indicate P < 0.1 and P < 0.01 (Student’s t test).
(§3) Arabidopsis seedlings were grown for 5 days on vertical plates. Roots were homogenized in extraction buffer [300 mM sucrose, 100 mM Tris-HCl pH 7.5, 25 mM EDTA, 25 mM NaF, 1 mM Na2MoO4, 1 mM PMSF and protease inhibitor cocktail (Roche), adjusted to pH 6.2], and the homogenate was spun at 2,000 x g for 10 min at 4 °C. The supernatant was recovered and centrifuged at 100,000 x g for 50 min at 4 °C to precipitate the microsomal pellet. The pellet was resuspended in the extraction buffer plus 0.5% Triton-X. Seedlings or microsomal fractions were placed in 200 μl of medium and incubated with 7 nM acridinium-labeled peptide (acriAtRALF1 or acriAtRALF34) and different concentrations of AtRALF1, AtRALF34 or RALF1(9–49) for 15–20 min at 4 °C on a shaker. After incubation, the seedlings or microsomal fractions were washed three times with the same medium. Unless indicated otherwise, five entire seedlings and approximately 10 ng of microsomal fractions were used per treatment. The resulting luminescence emissions from the acridinium were measured using a microplate reader (Biotec ELx 800) at 2 s after injecting 50 μl of a solution containing 20 mM H2O2 in 0.1 M NaOH. These experiments were repeated at least three times using independent biological replicates. Duplicates were used for each concentration or treatment. The data shown are from one representative experiment.
Supplementary file pgen.1007053.s017.pdf: S17 Fig Analyses of acridinium-labeled AtRALF1 (acriAtRALF1) and binding of acriAtRALF1 in bak1-4 and fer4 mutants. (A) The Ca^2+ mobilization assay comparing the acriAtRALF1 activity with the AtRALF1 peptide. A total of 20 time-points per treatment were measured over 160 sec and summed. The results are the means ± SD of two measurements. (B) acriAtRALF1 binding in whole seedlings and only in roots of Arabidopsis. The roots were excised just before measurements. Ctr, seedlings treated with unlabeled AtRALF1. (C) Whole seedlings (5 days old) were treated for 20 min with acriAtRALF1 (acriR1), acriR1 and an excess of unlabeled AtRALF1 (R1), as indicated. The values are the mean ± SD of three measurements (5 seedlings each). The proportions of labeled: unlabeled proteins are shown in parentheses. Triple asterisks indicates P < 0.001 (Student’s t test). (PDF) Click here for additional data file.
Supplementary file pgen.1007053.s018.pdf: S18 Fig Binding of acridinium-labeled AtRALF1 and AtRALF34 to intact Arabidopsis seedlings. (A) bak7 seedlings (5 days old) were treated for 15 min with acriAtRALF1 (acriR1), acriR1 and an excess of unlabeled AtRALF1 (R1), as indicated. (B) bak1 seedlings (5 days old) were treated for 15 min with acriAtRALF34 (acriR34), acriR34 and an excess of unlabeled AtRALF34 (R34) or AtRALF1 (R1), as indicated. The proportions of labeled: unlabeled proteins are shown in parentheses. The values are the mean ± SD of two measurements (5 seedlings each). (PDF) Click here for additional data file.

[6] = system: microsomal fractions from the roots of Arabidopsis; experiment: Binding assay with acridinium-labeled AtRALF1, microsomal fractions; design: species or system Arabidopsis thaliana
Protocol: as §2, §3

Compound: c1ccc(CNc2ncnc3nc[nH]c23)cc1 [6-benzylaminopurine (BAP), 6-benzylaminopurine, reference compound]
- root growth inhibition [1]: capable of inhibiting the root growth of bak1 mutants

Compound: AtRALF23: Arabidopsis RALF isoform (ATRRYISYGALRRNTIPCSRRGASYYNCRRGAQANPYSRGCSAITRCRRS; ends and bridges not checked; cysteine pairing not given here; UniProt Q9LUS7 89-138, looked up) [reference compound]
- primary root growth inhibition [2]: inhibited the primary root growth
- primary root growth inhibition [3]: inhibits the primary root growth of wild-type Arabidopsis plants
- alkalinization of the extracellular medium (cell suspensions): alkalinizes the extracellular medium of cell suspensions

Compound: acriAtRALF1: acridinium-labeled AtRALF1; acridinium ester conjugated to the N-terminal of the peptide ({acridinium ester}-ATTKYISYQSLKRNSVPCSRRGASYYNCQNGAQANPYSRGCSKIARCRS; ends and bridges not checked)
- increase in cytoplasmic Ca^2+ [4]: induced an increase in cytoplasmic Ca^2+
- reduction of total acriAtRALF1 binding vs wild-type ([5]; bak1-1 seedlings, 15 min): 30%
- reduction of total acriAtRALF1 binding vs wild-type ([5]; bak1-3 seedlings, 15 min): 29%
- reduction of total acriAtRALF1 binding vs wild-type ([5]; bak1-4 seedlings, 15 min): 31%
- reduction of total acriAtRALF1 binding, wild-type vs bak7 ([5]; bak7 mutants, 15 min): no differences in the reduction of total binding between wild-type and bak7 mutants were observed
- reduction of total acriAtRALF1 binding ([5]; fer4 mutants, 20 min (S17C Fig)): approximately 48%
- source of acriAtRALF1 chemiluminescent signal ([5]; whole seedlings vs only roots (S17B Fig)): the roots were the only source of the chemiluminescent signal
- nature of acriAtRALF1 binding ([6]; microsomal fractions): specific and saturable
- reduction of total acriAtRALF1 binding vs wild-type ([6]; microsomal fractions of bak1 mutants, 7 nM, 4 °C): approximately 15%

From PMC5656322, “BAK1 is involved in AtRALF1-induced inhibition of root cell expansion” (PLoS Genetics, 2017)
